Experimental data as given in patent US8242151B2, “Tricyclic compounds” (Kyowa Hakko Kirin Co., Ltd., priority 2007, dated 2012).

Columns and labels:
[1] = test system: spontaneously hypertensive rats (SHR); test: Antihypertensive action by telemetry method; assay type: in vivo, rat; conditions: oral once a day for 4 days, 24 hr averages
From the text: A telemetry transmitter was indwelled in the abdominal artery of spontaneously hypertensive rats (SHR), and the blood pressure and heart rate were monitored. The rats were acclimated and reared for 4 weeks or more, and only the rats with hypertension were used for the test. Before drug administration, the rats were grouped such that the blood pressure and heart rate of each rat would be of the same levels between the groups. A solvent (0.5% methylcellulose solution) and a test compound were repeatedly administered orally once a day for 4 days. The average systolic blood pressure for 24 hr, average diastolic blood pressure for 24 hr and average heart rate for 24 hr were calculated on each administration day.

[2] = target: T1, GAL4-PPARγ chimeric nuclear receptor (human PPARγ ligand binding region) (Homo sapiens, UniProt P37231); test: Transactivation assay of PPARγ by transient gene transfer (GAL4-PPARγ luciferase reporter); assay type: cell-based; conditions: HEK293EBNA cells, 24 hr; concentration showing 50% of efficacy; activity relative to pioglitazone 10 μmol/L = 100%
T1 construct: expressed in transfected cells; host or cells: HEK293EBNA cells
T1 sequence (P37231 174-475 isoform P37231-2): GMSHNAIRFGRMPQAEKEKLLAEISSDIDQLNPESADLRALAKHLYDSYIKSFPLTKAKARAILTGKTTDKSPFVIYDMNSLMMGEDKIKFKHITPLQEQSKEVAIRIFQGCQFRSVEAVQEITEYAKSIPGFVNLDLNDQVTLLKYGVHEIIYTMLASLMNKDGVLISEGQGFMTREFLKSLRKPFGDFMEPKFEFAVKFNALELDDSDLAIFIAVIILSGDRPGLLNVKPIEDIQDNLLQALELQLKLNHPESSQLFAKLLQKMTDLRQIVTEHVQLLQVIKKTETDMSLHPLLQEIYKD
Method: The agonist activity of compound (I) to PPARγ was determined by a transactivation assay method using a chimeric nuclear receptor of a DNA binding region of a yeast transcription factor GAL4 and a PPARγ ligand binding region. Specifically, the PPARγ agonist activity of compound (I) was evaluated by the following method based on the method of Lehmann et al. (J Biol. Chem., 1995, vol. 270, page 12953).
HEK293EBNA cells cultured in Dulbecco's Modified Eagle medium (Invitrogen) containing 10 v/v % fetal calf serum (Invitrogen) were used. 30 mL of the above-mentioned cells (density: 1×10^5 cells/mL) were inoculated in a […] culture dish (Iwaki Glass), and cultured overnight. Using SuperFect Transfection Reagent (QIAGEN), a plasmid expressing a GAL4-PPARγ chimeric nuclear receptor fusing 174-475 amino acids, which are human PPARγ ligand binding region, and 1-147 amino acids, which are GAL4 DNA binding region, and a reporter plasmid expressing a GAL4 responsive luciferase were transiently introduced into the cells at a proportion of 4:1. After 5 hr from gene introduction, the cells were detached from the culture dish, and the detached cells (density: 2×10^4 cells/mL) were inoculated by 100 μL in each well of a 96 well white plate (SUMITOMO BAKELITE), and cultured overnight. The medium was removed, compound (I) diluted in various concentrations with serum-free Dulbecco's Modified Eagle medium was added by 100 μL, and the mixture was reacted under a 5% carbon dioxide gas stream (5% CO2) at 37° C. for 24 hr. On the other hand, as a positive control, 10 μmol/L of pioglitazone (100 μL) was added, and the mixture was reacted under a 5% carbon dioxide gas stream (5% CO2) at 37° C. for 24 hr. As a substrate of luciferase, 100 μL of Steady-Glo (Promega) was added to each well and the mixture was thoroughly stirred. Immediately thereafter, the chemical luminescence due to luciferase was measured using TopCount NTX (Packard).
The agonist activity (activity rate (%)) of compound (I) to PPARγ was calculated according to the following formula, as a relative activity when the agonist activity on addition of pioglitazone (10 μmol/L) was 100%.

[3] = test system: spontaneously hypertensive rats (SHR); test: Antihypertensive action by tail cuff method; assay type: in vivo, rat; conditions: oral once a day for 7 days, about 4 to 9 hr after final administration
Method: 18- to 22-week-old spontaneously hypertensive rats (SHR) were used.
Before drug administration, the body weight, blood pressure and heart rate of each rat were measured, and the rats were grouped such that these values are almost the same between groups. A solvent (0.5% methylcellulose solution) and a test compound were repeatedly administered orally once a day for 7 days. At about 4 to 9 hr after the final administration, systolic blood pressure and heart rate were non-invasively measured according to the following.
The rats were placed in a cylindrical restrainer, heated to 37° C., and blood pressure and heart rate were measured under resting state using a Tail Cuff Method. For the measurement, a non-invasive blood pressure measurement apparatus (PS-600, Riken Kaihatsu, Tokyo) was used. The blood pressure and heart rate of each rat was measured 5 times, and the average was taken as the value of each rat.

| EC50 [2] | Compound | antihypertensive action (blood pressure, telemetry) [1] | antihypertensive action (systolic blood pressure, tail cuff) [3] |
| --- | --- | --- | --- |
| 784 nM | CCc1nc2c(Cl)cc(C)nc2n1Cc1ccc2c(c1)CCc1ccccc1/C2=C(/C)c1noc(=O)[nH]1 [Compound 44, (E)-2-(7-chloro-2-ethyl-5-methyl-3H-imidazo[4,5-b]pyridin-3-yl)methyl-5-[1-(5-oxo-4,5-dihydro-1,2,4-oxadiazol-3-yl)ethylidene]-10,11-dihydro-5H-dibenzo[a,d]cycloheptene] | antihypertensive action | antihypertensive action |
| 4560 nM | CCc1nc2c(C)cc(C)nc2n1Cc1ccc2c(c1)CCc1ccccc1N2Cc1nnn[nH]1 [Compound S13, 2-(2-ethyl-5,7-dimethyl-3H-imidazo[4,5-b]pyridin-3-yl)methyl-5-(1H-tetrazol-5-yl)methyl-10,11-dihydro-5H-dibenzo[b,f]azepine] | antihypertensive action | antihypertensive action |
| 1930 nM | CCc1nc2c(C)ccnc2n1Cc1ccc2c(c1)CCc1ccccc1/C2=C(/C)c1nnn[nH]1 [Compound 47, (E)-2-(2-ethyl-7-methyl-3H-imidazo[4,5-b]pyridin-3-yl)methyl-5-[1-(1H-tetrazol-5-yl)ethylidene]-10,11-dihydro-5H-dibenzo[a,d]cycloheptene] | antihypertensive action | antihypertensive action |
| 1840 nM | CCc1nc2c(Cl)ccnc2n1Cc1ccc2c(c1)COc1ccccc1/C2=C(/C)c1noc(=O)[nH]1 [Compound 137, (Z)-8-(7-chloro-2-ethyl-3H-imidazo[4,5-b]pyridin-3-yl)methyl-11-[1-(5-oxo-4,5-dihydro-1,2,4-oxadiazol-3-yl)ethylidene]-6,11-dihydrodibenzo[b,e]oxepine] | antihypertensive action | antihypertensive action |
